These results are taken from patent publication US20220257752A1, “NEW USE OF CYCLIC DINUCLEOTIDES” (priority 2019, published 2022).

The test system of experiment [1] is human cord blood. As to the kind of experiment: In vitro assay using human cord blood: cytokines in supernatant (multiplex array, IL-1β ELISA). Format: cell-based. The source says:
(§1) Adult peripheral blood for controls was collected from healthy volunteers. Cord blood was obtained by needle puncture of the umbilical cord vein right after delivery of healthy newborn donors at the Women's Clinic (Braunschweig Central Hospital). Signed informed consent from parents was obtained, ensuring that no ulterior modification of the genetic material contained or therapeutic use was involved in our study. Citrate anti-coagulated cord blood bags (Macopharma, France) were stored at room temperature before the in vitro assays.
(§2) Adult or cord blood was mixed 1:1 with 37° C. warm RPMI 1640 medium (Gibco) and incubated with adjuvants and controls according to previously described method (Dowling, D. J., et. al., 2013, PLoS One 8 (3):e58164.). Briefly, 20 μl of the adjuvants 10× were added to 180 μl of diluted blood in quadruplicates (in a 96 U shape well plate), and incubated at 37° C., 5% CO2 for 6 h. Supernatant fluids were assayed by flow cytometry in multiplex arrays (Biolegend) or in an ELISA reader for IL-1β (eBioscience).
(§3) One of the well-established methods to assess adjuvant immunogenicity in human neonates is the use of cord blood as a surrogate (Dowling, D. J., et. al., 2013, PLoS One 8 (3):e58164. doi:). Therefore, to assess the secretory cytokine profile elicited by CDA in neonates, we incubated cord and adult blood in the presence of adjuvants and controls for 6 h. A bead-based multiplexed immunoassay array was employed in order to detect cytokines in the supernatant. […] Remarkably, CDA increased the secretion of Th1 cytokines, which are important to counteract the Th2 bias present at birth (Debock, I., et. al., 2013, J Immunol 191 (3):1231-9. doi: 10.4049/jimmunol.1203288).

The test system of experiment [2] is human adult peripheral blood. As to the kind of experiment: In vitro assay using human adult blood: cytokines in supernatant (multiplex array, IL-1β ELISA). Format: cell-based.
Text: as §1, §2, §3

Experiment [3] concerns OVA-specific IgG. The class given is in vivo, mice. The conditions noted are these: versus OVA alone, PBS and R848.
Experiment [4] relates to H1N1 PR8 influenza A/WSN/33 (WSN)-OVA(I) strain. The class given is in vivo, mice.
The subject of experiment [5] is H1N1 influenza A/WSN/33 (WSN)-OVA(I) strain. The class given is in vivo, mice. The conditions noted are these: mouse, in vivo.

In the case of `Nc1ncnc2c1ncn2[C@@H]1O[C@@H]2COP(=O)(O)O[C@H]3[C@@H](O)[C@H](n4cnc5c(N)ncnc54)O[C@@H]3COP(=O)(O)O[C@H]2[C@H]1O` [CDA, cyclic bis(3′-5′)diadenylic acid], the Th17 cytokines entry in experiment [1] (after treatment, blood type not given) is “particularly decreased”. Besides, the figures for the IL-9 result in experiment [1] (cord blood samples) and in experiment [2] (over the other treatments) were “slightly decreased” and “difference was accentuated”, respectively. Besides, the “IL-6, IL-21 and IL-10 (Tfh profile cytokines) concentrations” value in experiment [1] (cord blood, 6 h incubation) was “higher concentrations”; in experiment [2] (6 h incubation), “Slightly similar results”. Besides, the “TNF-α and IFN-γ (Th1 cytokines) concentrations in supernatant” value in experiment [1] (cord blood, 6 h incubation, compared to R848 or medium) is “higher concentrations”; in experiment [2] (6 h incubation, compared to R848 or medium), “differences were not observed”. Further, the “stimulation of cytokines produced by Th2 and Th17 cells” value in experiment [1] (cord blood, compared to R848 treatment and control cells) was “more modest”; in experiment [2] (compared to R848 treatment and control cells), “more modest”. Moreover, the “IL-1β (pro-inflammatory cytokine) by ELISA” value is “slightly decreased” in experiment [1] (cord blood, with respect to R848) and “slightly decreased” in experiment [2] (with respect to R848). Moreover, in experiment [3], the “OVA-specific IgG titers in sera” value is “higher titers”. Also, in experiment [4] (mouse, in vivo), the protection conferred result is on record as “significantly higher”. Besides, the “protective CTL response against influenza virus expressing a CD8 restricted epitope” value in experiment [4] (mouse, in vivo) is “able to promote a protective CTL response”. In addition, in experiment [4] (versus the other adjuvants and controls, unpaired t test p≤0.05), the “differences in protection during the 48 h of maximal weight loss” value is given as “significant”.
Turning to `CCOCc1nc2c(N)nc3ccccc3c2n1CC(C)(C)O` [R848, reference compound], in experiment [5], the “body weight over 14 days after challenge” value is listed as “lost weight”.

B1: OVA: ovalbumin antigen (EndoGrade, Hyglos) given without adjuvant (protein, UniProt P01012 2-386, looked up)
Ovalbumin: GSIGAASMEFCFDVFKELKVHHANENIFYCPIAIMSALAMVYLGAKDSTRTQINKVVRFDKLPGFGDSIEAQCGTSVNVHSSLRDILNQITKPNDVYSFSLASRLYAEERYPILPEYLQCVKELYRGGLEPINFQTAADQARELINSWVESQTNGIIRNVLQPSSVDSQTAMVLVNAIVFKGLWEKAFKDEDTQAMPFRVTEQESKPVQMMYQIGLFRVASMASEKMKILELPFASGTMSMLVLLPDEVSGLEQLESIINFEKLTEWTSSNVMEERKIKVYLPRMKMEEKYNLTSVLMAMGITDVFSSSANLSGISSAESLKISQAVHAAHAEINEAGREVVGSAEAGVDAASVSEEFRADHPFLFCIKHIATNAVLFFGRCVSP
Regarding B1, the deaths after challenge entry in experiment [4] (mouse, in vivo) is recorded as “no deaths”. The “body weight over 14 days after challenge” value in experiment [5] was “lost weight”.
